“And” between values parts separate entries of the source, which are not always exact repeats. Equal values may be shown once. Read-outs that look alike come from different tables or passages of the source.
Experiments:
α1β2γ2 GABAA receptor [1] = molecular target: T1, α1β2γ2 GABAA receptor (Mus musculus, UniProt P62812+P63137); settings: for irreversible reduction/block of GABA current post-UV: one cycle of UV
α1β2γ2 GABAA receptor [2] = molecular target: T1, α1β2γ2 GABAA receptor; assay: Schild analysis of competitive antagonism in HEK cells
[3] = molecular target: T2, α1β2γ2 (wt) GABAA receptor (Mus musculus, UniProt P62812+P63137); settings: for Max inhibition: inhibition of GABA EC50 response, wt
[4] = molecular target: T3, α1R119Qβ2E155Q+R207Qγ2 GABAA receptor (Mus musculus, UniProt P62812+P63137, E179Q/R146Q/R231Q)
[5] = molecular target: T4, α1R119Qβ2γ2 GABAA receptor (Mus musculus, UniProt P62812+P63137, R146Q); assay: cell-based
[6] = molecular target: α1R119Qβ2E155Qγ2 GABAA receptor (Mus musculus, UniProt P62812+P63137, E179Q/R146Q); assay: cell-based
[7] = molecular target: α1β2E155Qγ2 GABAA receptor (Mus musculus, UniProt P62812+P63137, E179Q); assay: cell-based
[8] = molecular target: T5, α1β2E155Q+R207Qγ2 GABAA receptor (Mus musculus, UniProt P62812+P63137, E179Q/R231Q); assay: cell-based
[9] = molecular target: T3, α1R119Qβ2E155Q+R207Qγ2 GABAA receptor; assay: cell-based
[10] = molecular target: T6, α1β2R207Qγ2 GABAA receptor (Mus musculus, UniProt P62812+P63137, R231Q); assay: cell-based
[11] = molecular target: T5, α1β2E155Q+R207Qγ2 GABAA receptor
[12] = molecular target: T4, α1R119Qβ2γ2 GABAA receptor; settings: for Max inhibition: α1R119Qβ2γ2; for potency increase compared with wild type: α1R119Qβ2γ2 vs wild type
[13] = molecular target: T2, α1β2γ2 (wt) GABAA receptor; assay: cell-based
[14] = molecular target: T6, α1β2R207Qγ2 GABAA receptor
[15] = molecular target: T7, α1R119Qβ2R207Qγ2 GABAA receptor (Mus musculus, UniProt P62812+P63137, R146Q/R231Q)
[16] = molecular target: T7, α1R119Qβ2R207Qγ2 GABAA receptor; assay: cell-based
[17] = molecular target: T2, α1β2γ2 (wt) GABAA receptor; set-up: expressed in transfected cells; host or cells: HEK cells; settings: α1β2γ2, GABA EC50 response; cited from earlier work
α1β2γ2 GABAA receptor [18] = molecular target: T1, α1β2γ2 GABAA receptor; assay: cell-based; settings: HEK293, read-out: maximum GABA current after UV in the presence of GZ-B1, % of control
[19] = molecular target: T4, α1R119Qβ2γ2 GABAA receptor; assay: cell-based; settings: HEK293, read-out: maximum GABA current after UV in the presence of GZ-B1, % of control
[20] = tested on: synaptic GABAA receptors of cerebellar granule cells; assay: sIPSCs in cultured cerebellar granule cells after UV photoactivation; settings: 10 μM GZ-B1, one UV cycle
[21] = molecular target: T8, α1R84+119Qβ2D162+163Nγ2 GABAA receptor (Mus musculus, UniProt P62812+P63137, D186N/D187N/R111Q/R146Q); assay: cell-based; settings: HEK293, read-out: maximum GABA current after UV in the presence of GZ-B1, % of control
[22] = molecular target: T9, α1R84Qβ2R207Qγ2 GABAA receptor (Mus musculus, UniProt P62812+P63137, R111Q/R231Q); assay: cell-based
[23] = molecular target: T10, α1R84Qβ2γ2 GABAA receptor (Mus musculus, UniProt P62812+P63137, R111Q); assay: cell-based; settings: HEK293, read-out: maximum GABA current after UV in the presence of GZ-B1, % of control
[24] = molecular target: α1β2D162N,D163Nγ2 GABAA receptor (Mus musculus, UniProt P62812+P63137, D186N/D187N); assay: cell-based; settings: HEK293, read-out: maximum GABA current after UV in the presence of GZ-B1, % of control
α3β3γ2 GABAA receptor = molecular target: T11, α3β3γ2 GABAA receptor (Mus musculus, UniProt P26049+P63080); assay: GZ-B1 inhibition of GABA EC50 responses, receptor subtype selectivity in HEK cells; assay type: cell-based, murine; settings: α3β3γ2, GABA EC50 response, ANOVA Dunnett
T11 construct: expressed in transfected cells; host or cells: HEK cells
Text: (§1) […]; pH 7.4 (adjusted with 1 M NaOH).

α4β3δ GABAA receptor = molecular target: T12, α4β3δ GABAA receptor (Mus musculus, UniProt P63080+Q9D6F4); assay: as above; assay type: cell-based, murine; settings: GABA EC50 response, ANOVA Dunnett
T12 construct: expressed in transfected cells; host or cells: HEK cells
Text: as §1

[25] = molecular target: T8, α1R84+119Qβ2D162+163Nγ2 GABAA receptor; assay: cell-based
[26] = molecular target: α1β2D162+163Nγ2 GABAA receptor (Mus musculus, UniProt P62812+P63137, D186N/D187N); assay: cell-based
[27] = molecular target: T10, α1R84Qβ2γ2 GABAA receptor
[28] = molecular target: T9, α1R84Qβ2R207Qγ2 GABAA receptor; settings: α1R84Qβ2R207Qγ2 double mutant
[29] = molecular target: T10, α1R84Qβ2γ2 GABAA receptor; assay: cell-based
[30] = 10 μM GABA, 10 μM antagonist, one cycle of 10 UV flashes, 3–5 min wash
[31] = IC50, inhibition of GABA EC50 response, α1R119Qβ2γ2
[32] = IC50, α1R119Qβ2γ2, as printed in text
[33] = IC50, inhibition of GABA EC50 response, α1β2R207Qγ2

Structure (SMILES) | irreversible reduction/block of GABA current post-UV (α1β2γ2 GABAA receptor [1]; 10 μM antagonist) | Kb (α1β2γ2 GABAA receptor [2]) | GABA-induced current post-UV, normalized to control (α1β2γ2 GABAA receptor [1]; [30]) | Max inhibition [4] | IC50 [5, 31] | IC50 [5, 32] | IC50 [6] | IC50 [7] | IC50 [8] | IC50 [9] | IC50 [10, 33] | Max inhibition [11] | Max inhibition [12] | potency increase compared with wild type [12] | IC50 [13] | Max inhibition [14] | Max inhibition [15] | IC50 [16] | Max inhibition [3] | also measured
[N-]=[N+]=Nc1ccc(COc2ccc(-c3ccc(=N)n(CCCC(=O)O)n3)cc2)cc1 [GZ-A1] | ~ 30% | 44 nM |  |  |  |  |  |  |  |  |  |  |  |  |  |  |  |  |  | GABA-induced current post-UV, normalized to control (α1β2γ2 GABAA receptor [1]): 71.3±6.8%
N=c1ccc(-c2ccc(C(=O)c3ccccc3)cc2)nn1CCCC(=O)O [GZ-B2] |  | 318 nM | 98.3±4.2% |  |  |  |  |  |  |  |  |  |  |  |  |  |  |  |  | relative potency compared with gabazine ([3]; α1β2γ2, GABA EC50 response): equipotent
COc1ccc(-c2ccc(=N)n(CCCC(=O)O)n2)cc1 [gabazine, reference compound] |  | 300 nM | 101.6±3.3% | 94 ± 1% | 188 nM | 188 nM | > 100000 nM | > 100000 nM | 1380 nM | 2260 nM | 1710 nM | 100% | 100% | ~ 2 fold | 349 nM | 100% | 100% | 3750 nM | 100% | 
N=c1ccc(-c2ccc(OCc3ccccc3)cc2)nn1CCCC(=O)O [GZ-i1] |  | 13 nM |  |  |  |  |  |  |  |  |  |  |  |  |  |  |  |  |  | increase in affinity (Ki) over gabazine (α1β2γ2 GABAA receptor [2]; Schild analysis): 20 fold; increase in potency over gabazine [17]: more than 30 fold
N=c1ccc(-c2ccc(OCc3ccc(C4(C(F)(F)F)N=N4)cc3)cc2)nn1CCCC(=O)O [GZ-D1] | ~ 20% | 132 nM | 79.0±4.5% |  |  |  |  |  |  |  |  |  |  |  |  |  |  |  |  | 
N=c1ccc(-c2ccc(OCc3ccc(C(=O)c4ccccc4)cc3)cc2)nn1CCCC(=O)O [GZ-B1] | ~ 50% | 153 nM | 50.8±1.8% | 72 ± 4% | 71.5 nM | 72 nM | > 100000 nM | > 100000 nM | 470 nM | 426 nM | 487 nM | 100% | 100% | ~ 2 fold | 155 nM | 83 ± 3% | 75 ± 2% | 418 nM | 100% | remaining activity at 10 µM (α1β2γ2 GABAA receptor [18]): 62 ± 4.2%; remaining activity at 10 µM [19]: 73 ± 2.6%; reduction in synaptic current (sIPSC) amplitude [20]: ≤ 90%; remaining activity at 100 µM [21]: 97 ± 3.4%; IC50 [22]: 182000 nM; remaining activity at 100 µM [23]: 84 ± 4.9%; remaining activity at 100 µM [24]: 71 ± 2.6%; GZ-B1 potency (IC50) compared with α1β3γ2 (α3β3γ2 GABAA receptor): significantly lower potencies; GZ-B1 potency (IC50) compared with α1β3γ2 (α4β3δ GABAA receptor): significantly lower potencies; IC50 ([10]; IC50, α1β2R207Qγ2, as printed in text): 487 nM; IC50 [25]: 258000 nM; IC50 [26]: 13500 nM; Max inhibition [27]: 100%; reduction (loss) of GZ-B1 potency [28]: 1,000 fold and > 1,000 fold; IC50 ([29]; IC50, inhibition of GABA EC50 response): 4220 nM; IC50 ([29]; pIC50, inhibition of GABA EC50 response): 4230 nM

Reference: PMC4124873, “Photo-antagonism of the GABAA receptor” (Nature Communications, 2014)
